# Experimental data published in PubChem BioAssay (NCI).
#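 Grown in 96-well plates, cells were treated for 48 hours with each compound at five concentrations. Insufficient inhibition: endpoint recorded as highest concentration tested. GI50 = concentration required for 50% inhibition of growth. At the TGI there is no net growth.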
# Columns and labels:
# Test in all cases: NCI tumour cell line growth inhibition, 48 h
# CCRF-CEM leukemia = test system: CCRF-CEM leukemia
# RPMI-8226 leukemia = test system: RPMI-8226 leukemia
# SNB-19 CNS = test system: SNB-19 CNS
# SN12C renal = test system: SN12C renal
# HT29 colon = test system: HT29 colon
# OVCAR-4 ovarian = test system: OVCAR-4 ovarian
# MOLT-4 leukemia = test system: MOLT-4 leukemia
# HL-60(TB) leukemia = test system: HL-60(TB) leukemia
# K-562 leukemia = test system: K-562 leukemia
# MCF7 breast = test system: MCF7 breast
Compound,GI50 (CCRF-CEM leukemia) [nM],TGI (CCRF-CEM leukemia) [nM],GI50 (RPMI-8226 leukemia) [nM],TGI (RPMI-8226 leukemia) [nM],GI50 (SNB-19 CNS) [nM],TGI (SNB-19 CNS) [nM],GI50 (SN12C renal) [nM],TGI (SN12C renal) [nM],GI50 (HT29 colon) [nM],TGI (HT29 colon) [nM],GI50 (OVCAR-4 ovarian) [nM],TGI (OVCAR-4 ovarian) [nM],GI50 (MOLT-4 leukemia) [nM],TGI (MOLT-4 leukemia) [nM],GI50 (HL-60(TB) leukemia) [nM],TGI (HL-60(TB) leukemia) [nM],GI50 (K-562 leukemia) [nM],TGI (K-562 leukemia) [nM],GI50 (MCF7 breast) [nM],TGI (MCF7 breast) [nM]
C[C@@H](Oc1cc(-c2cnn(C3CC4(CCCNC4)C3)c2)cnc1N)c1c(Cl)ccc(F)c1Cl (some centres not stated),936,4770,1900,5050,3320,14400,1500,8970,607,2300,1850,5560,1220,5460,1160,3010,265,1410,363,1850
C/C(=N\Nc1cccc(Cl)n1)c1ccccn1,365,> 25200,615,8280,1230,> 100000,598,> 100000,909,> 100000,439,> 54700,407,> 100000,446,3940,574,> 100000,2000,> 100000
N#CSCC(=O)c1ccc(Cl)cc1,1500,20600,1440,4650,14100,> 73000,3690,19000,3590,19700,12400,> 100000,1030,> 33100,,> 22300,974,> 40300,2530,13600
COc1cc2c3c(c1O)C1(C=CC(=O)C=C1)CC3N(C)CC2 (configuration not stated),,13800,,83700,,27900,,30200,,23400,,> 100000,,37300,,10900,,> 100000,,20500
COC(=O)Nc1nc2ccc(Sc3ccccc3)cc2[nH]1,249,> 100000,358,> 36600,267,28900,524,25700,49.4,1290,856,6340,262,,80.5,455,48.2,,66.6,26000
ClC1=C(Cl)C(Cl)=C(Cl)C1=Cc1ccc(Cl)cc1,330,2470,422,5320,1070,2420,375,1820,270,735,818,2340,356,2960,1210,5860,388,4100,386,1790
